What all share (assay type): cell-based
For one data set, the system named is HBV. Kind of data set: Anti-HBV activity in HepG2.2.15 cells (HBV DNA in culture medium by qPCR). As to conditions: HepG2.2.15 cells, 6 days treatment, HBV DNA in culture medium quantified by real-time PCR, read-out: EC50. In short, it runs like this:
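Secreted HBV DNA was measured by real-time PCR after 6-day compound exposure of HepG2.2.15 cells (2% FBS, 37 °C, re-dosed after 3 days), giving EC50 from 8-point 1:3 series starting at 10 or 1 uM. Cytotoxicity (CC50) run separately at lower cell density, top 100 uM.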
For orientation: Quantitative PCR measures a nucleic acid by following its amplification.

Another data set has as its system HepG2.2.15 cells. Kind of data set: Cytotoxicity determination in HepG2.2.15 cells (CCK-8 cell viability). As to conditions: 6 days treatment, CCK-8 assay, highest concentration 100 uM. In short, it runs like this: (§1)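 Viability measured by CCK-8 absorbance (450 nm, 630 nm reference, 2.5 h at 37° C) after six days of treatment, medium and compound renewed on day 3. Top concentration 100 uM, eight threefold dilutions in triplicate; cells plated at 5,000/well in 2% FBS medium; CC50 derived.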

Test in data set [1]: as above
To be noted: human, 6 days treatment, CCK-8 assay, highest concentration 100 uM. A digest of the protocol:
as §1

The mark [2] stands for this setting: Hepatitis B virus, HepG2.2.15, 144 h.

Read-outs that look alike come from different tables or passages of the source.

The term EC50 denotes the midpoint of the concentration-response curve. The CC50 is the concentration that lowers cell viability or growth by half. Higher therefore signals better tolerance by the cells.

As to `COC(=O)C1=C(CN2CC(F)(F)[C@H]3[C@@H]2CCN3C[C@@H](C)C(=O)O)NC(c2nccs2)=N[C@H]1c1cccc(F)c1C` (single isomer, unassigned) [Compound 131B, 3-((cis)-6,6-Difluoro-4-(((S*)-6-(3-fluoro-2-methylphenyl)-5-(methoxycarbonyl)-2-(thiazol-2-yl)-3,6-dihydropyrimidin-4-yl)methyl)hexahydropyrrolo[3,2-b]pyrrol-1(2H)-yl)-2-methylpropanoic acid], the EC50 in the data set on HBV came to 29.7 nM. The compound also had a CC50 with HepG2.2.15 cells of 65600 nM.
Consider `CCOC(=O)C1=C(CN2CC(F)(F)C3C2CN(C(C)=O)N3CCC(C)(C)C(=O)O)NC(c2nccs2)=N[C@H]1c1cccc(F)c1C` (stereo partly drawn) [Compound 70, 4-(2-acetyl-4-(((S)-5-(ethoxycarbonyl)-6-(3-fluoro-2-methylphenyl)-2-(thiazol-2-yl)-3,6-dihydropyrimidin-4-yl)methyl)-6,6-difluorohexahydropyrrolo[3,2-c]pyrazol-1(2H)-yl)-2,2-dimethylbutanoic acid], for which the EC50 in the data set with HBV (setting [2]) was 8.1 nM. In data set [1], this compound registered a CC50 at 6 days of 27100 nM.
Take `CCOC(=O)C1=C(CN2CC(F)(F)[C@H]3[C@@H]2CN(C(C)=O)N3CCC(C)(C)C(=O)O)NC(c2nccs2)=N[C@H]1c1cccc(F)c1C` [Compound 70A, 4-((cis)-2-Acetyl-4-(((S)-5-(ethoxycarbonyl)-6-(3-fluoro-2-methylphenyl)-2-(thiazol-2-yl)-3,6-dihydropyrimidin-4-yl)methyl)-6,6-difluorohexahydropyrrolo[3,2-c]pyrazol-1(2H)-yl)-2,2-dimethylbutanoic acid]: the EC50 in the data set on HBV was determined as 35 nM. The CC50 at 6 days in data set [1] was more than 50000 nM.
For `CCOC(=O)C1=C(CN2CC(F)(F)[C@H]3[C@@H]2CN(C(C)=O)N3CCC(C)(C)C(=O)O)NC(c2nccs2)=N[C@H]1c1cccc(F)c1C` [Compound 70B, 4-((cis)-2-Acetyl-4-(((S)-5-(ethoxycarbonyl)-6-(3-fluoro-2-methylphenyl)-2-(thiazol-2-yl)-3,6-dihydropyrimidin-4-yl)methyl)-6,6-difluorohexahydropyrrolo[3,2-c]pyrazol-1(2H)-yl)-2,2-dimethylbutanoic acid], the EC50 in the data set on HBV was found to be 16 nM. Further, the CC50 in the data set with HepG2.2.15 cells is more than 50000 nM.
On to `CCOC(=O)C1=C(CN2CC(F)(F)C3C2CN(C(C)=O)N3CCC(CC)C(=O)O)NC(c2nccs2)=N[C@H]1c1cccc(F)c1C` (stereo partly drawn) [Compound 78], for which the EC50 with HBV (setting [2]) was 49 nM. This compound also yielded a CC50 at 6 days in data set [1] of 70300 nM.
Consider `CCOC(=O)C1=C(CN2CC(F)C3C(=O)N(CC(C)(C)C(=O)O)CC32)NC(c2nccs2)=N[C@H]1c1cccc(F)c1C` (stereo partly drawn) [Compound 186, 3-((cis)-1-(((S)-5-(ethoxycarbonyl)-6-(3-fluoro-2-methylphenyl)-2-(thiazol-2-yl)-3,6-dihydropyrimidin-4-yl)methyl)-3-fluoro-4-oxohexahydropyrrolo[3,4-b]pyrrol-5(1H)-yl)-2,2-dimethylpropanoic acid], for which, in the data set on HBV (setting [2]), the EC50 worked out at 8.9 nM. Further, in data set [1], the CC50 at 6 days is 66900 nM.

The record behind these values is US20230083012A1, “DIHYDROPYRIMIDINE DERIVATIVES AND USES THEREOF IN THE TREATMENT OF HBV INFECTION OR OF HBV-INDUCED DISEASES” (priority 2019, published 2023).
